# Columns and labels:
# CaMKKβ mRNA = test: qPCR of CaMKKβ mRNA in prostate cancer cells; assay type: cell-based, human; details: for CaMKKβ mRNA levels: R1881 0.1, 1, 10 nM, 24 h
# Description: (§1) FIG. 1. Androgens increase CaMKKβ levels in an AR-dependent manner. LNCaP or VCaP cells were treated for 24 h with vehicle or increasing concentrations of the synthetic androgen R1881 (A—0.1, 1, and 10 nM; B—0.01, 0.1, 1, and 10 nM). A, after treatment, cells were lysed, and RNA was isolated and reversed transcribed. The expression of CaMKKβ was assessed using qPCR. B, after treatment, cells were subjected to western blot analysis and subsequent densitometry (top). CaMKKβ protein levels were normalized to GAPDH loading control. A and B, results are expressed as fold induction over vehicle-treated cells+SE (n=3). *, significant changes from vehicle-treated cells. C, LNCaP cells were transiently transfected with mock or Stealth siRNAs targeting a negative control (siLacZ) or CaMKKβ (#1-3). Two days later, cells were treated for 24 h+/−10 nM R1881. Whole-cell extracts were subjected to western blot analysis and densitometry (top) as described in B. *, significant changes from mock-transfected cells. D, LNCaP cells were transfected as described in C with mock or Stealth siRNAs targeting LacZ or AR and treated for 24 h. The expression of CaMKKβ was assessed as in A using qPCR.
# FIG. 9. Identification of the ARE that regulates CaMKKβ expression. A, LNCaP cells were pretreated for 1 h with vehicle or 1 mg/mL cycloheximide followed by vehicle or 10 nM R1881 for 24 h. CaMKKβ or CXCR4 mRNA levels were quantified using qPCR. Results are expressed as fold induction over vehicle (no R1881)-treated cells±SE (n=3). *, significant changes from vehicle-treated cells. B, LNCaP cells were treated with vehicle (V) or 10 nM R1881 for 1 or 4 h. Cross-linked chromatin was immunoprecipitated with indicated antibodies. […]
# (§2) RNA isolation, cDNA preparation, and quantitative and standard reverse transcription (RT)-PCR. RNA isolation, cDNA preparation and quantitative RT-PCR (qPCR) were performed as previously described using 36B4 as a control (12). […]
# CaMKKβ protein = test: Western blot of CaMKKβ protein in prostate cancer cells; assay type: cell-based, human; details: R1881 0.01, 0.1, 1, 10 nM, 24 h
# Description: as §1
# (§3) Western blot analysis. […] For each sample, protein levels were determined by densitometry using the ImageJ software (NIH) and normalizing to indicated controls.
# [1] = tested on: AR binding region ~2.3 kb upstream of the CaMKKβ transcriptional start site; test: Chromatin immunoprecipitation of AR at the CaMKKβ upstream region; assay type: cell-based, human; details: LNCaP; 10 nM R1881 for 1 or 4 h
# Description: (§4) FIG. 9. Identification of the ARE that regulates CaMKKβ expression. A, LNCaP cells were pretreated for 1 h with vehicle or 1 mg/mL cycloheximide followed by vehicle or 10 nM R1881 for 24 h. CaMKKβ or CXCR4 mRNA levels were quantified using qPCR. Results are expressed as fold induction over vehicle (no R1881)-treated cells±SE (n=3). *, significant changes from vehicle-treated cells. B, LNCaP cells were treated with vehicle (V) or 10 nM R1881 for 1 or 4 h. Cross-linked chromatin was immunoprecipitated with indicated antibodies. The precipitated DNA was amplified using primers spanning a region identified using ChIP on Chip data as a potential AR-binding site (indicated in top schematic) or a distal upstream region (negative control). The results are presented as percent input±SE (n=3). *, significant changes from IgG controls. C, various enhancer luciferase reporter constructs (depicted in top model) were transfected into LNCaP cells and treated overnight+/−10 nM R1881. After treatment, cells were harvested and assayed for luciferase activity. Luciferase values were normalized to β-galactosidase control. Data are the mean relative light units (RLUs)+SEM for one representative experiment performed in triplicate (n=3). *, significant changes from vehicle-treated cells. […]
# distant metastases = details: prostate cancer patients, clinical trials; cited from earlier work
# circulating tumor cells = details: patients having a castration-resistant type cancer; cited from earlier work
# LNCaP cells = test: Boyden dual chamber migration assay; assay type: cell-based, human
# Description: FIG. 7. CaMKKβ activity in the androgen-mediated migration and invasion of prostate cancer cells. A, LNCaP cells were plated in 96-well plates and grown for 3 d. […] On d 10, cells were lysed and the relative number of cells was measured with the fluorescent DNA binding dye FluoReporter Blue. Each sample was performed in triplicate, and results from a representative experiment are shown. […] Cells were then dissociated and reseeded into the top chamber for a Boyden migration or Matrigel extracellular matrix invasion assay. Fresh medium with the corresponding treatments was added to the top and bottom chambers while either no chemoattractant or 5% FBS (serum) was added to the bottom chamber. After 16 h, migrated cells were fixed, stained and counted in three different microscopic fields and added together. […] C top, LNCaP cells were transfected with indicated siRNAs. […] D right, LNCaP cells stably expressing either GAL4 (control) or CaMKKβ were subjected to a migration assay as described in B using +/-5% FBS as chemoattractant. The results are expressed as mean+SE (n=3). *, significant changes from LNCaP-GAL4 cells. D left, western blot confirming CaMKKβ […]expression. FIG. 11. Androgen-mediated migration occurs through a CaMKKβ-AMPK-dependent pathway. […] Results are expressed as fold induction/phosphorylation over double vehicle-treated cells+SE (n=3). *, significant changes from vehicle-treated cells. […] Results are expressed as fold induction/phosphorylation over LNCaP-GAL4 vehicle-treated cells+SE (n=3). *, significant changes from LNCaP-GAL4 vehicle-treated cells. […] The results are expressed as mean±SE (n=2). *, P<0.05 indicates significant changes from double vehicle-treated cells. ^#, P<0.05 indicates significant decreases from vehicle (no compound C)-treated cells. […] ACC is a direct target of AMPK and thus, was used as a readout of AMPK catalytic activity. […] Results are expressed as fold induction/phosphorylation over double vehicle-treated cells+SE (n=2). *, P<0.05 indicates significant changes from double vehicle-treated cells. […]
# AMPK = test: Western blot of phospho-ACC (readout of AMPK catalytic activity); assay type: cell-based, human; details: LNCaP; 1 h 1, 10 or 40 mM compound C, overnight +/-10 nM R1881
# Description: FIG. 13. AMPK and androgen-mediated prostate cancer cell migration. A, LNCaP cells were pretreated for 1 h with vehicle or increasing concentrations of compound C (10 or 40 mM) prior to overnight treatment+/−10 nM R1881 or 1 mM AICAR. Cells were then subjected to a migration assay as described in FIG. 7. The results are expressed as mean±SE (n=2). *, P<0.05 indicates significant changes from double vehicle-treated cells. ^#, P<0.05 indicates significant decreases from vehicle (no compound C)-treated cells. B, LNCaP cells were pretreated for 1 h with vehicle, 1, 10 or 40 mM compound C prior to overnight treatment+/−10 nM R1881. Cell lysates were then subjected to western blot analysis and subsequent densitometry (top). ACC is a direct target of AMPK and thus, was used as a readout of AMPK catalytic activity. Phospho-ACC (p-ACC) levels were normalized to total ACC. Results are expressed as fold induction/phosphorylation over double vehicle-treated cells+SE (n=2). *, P<0.05 indicates significant changes from double vehicle-treated cells. […]
# as §3
# CXCR4 mRNA = test: qPCR of CXCR4 mRNA in LNCaP cells; assay type: cell-based, human; details: 1 h 1 mg/mL cycloheximide, then 10 nM R1881 24 h
# Description: as §4, with “control.” for “control. Data are the mean relative light units (RLUs)+SEM for one representative experiment performed in triplicate (n=3). *, significant changes from vehicle-treated cells.”
# as §2
smiles,measurement,setting,value
"C[C@]1(O)CC[C@H]2[C@@H]3CCC4=CC(=O)CCC4=C3C=C[C@@]21C [R1881, Methyltrienolone]",CaMKKβ mRNA levels,CaMKKβ mRNA; LNCaP,increased in a dose-dependent manner
same,CaMKKβ mRNA levels,CaMKKβ mRNA; VCaP,increased in a dose-dependent manner
same,CaMKKβ protein levels,CaMKKβ protein; LNCaP,dose-dependent increase
same,CaMKKβ protein levels,CaMKKβ protein; VCaP,dose-dependent increase
same,AR recruitment to the CaMKKβ upstream region,[1],recruited to this region of the promoter within one hour
CC(C)C[C@H](NC(=O)[C@@H](COC(C)(C)C)NC(=O)[C@H](Cc1ccc(O)cc1)NC(=O)[C@H](CO)NC(=O)[C@H](Cc1c[nH]c2ccccc12)NC(=O)[C@H](Cc1cnc[nH]1)NC(=O)[C@@H]1CCC(=O)N1)C(=O)N[C@@H](CCCNC(=N)N)C(=O)N1CCC[C@H]1C(=O)NNC(N)=O [goserelin],incidences of distant metastases,distant metastases,reduced incidences of distant metastases
CNC(=O)c1ccc(N2C(=S)N(c3ccc(C#N)c(C(F)(F)F)c3)C(=O)C2(C)C)cc1F [MDV3100],number of circulating tumor cells in patients,circulating tumor cells,decreases the number of circulating tumor cells in approximately half of the treated patients
c1cc(-c2cnn3cc(-c4ccc(OCCN5CCCCC5)cc4)cnc23)ccn1 [compound C],androgen-mediated cell migration,"LNCaP cells; 1 h pretreatment with compound C (10 or 40 mM), overnight 10 nM R1881",completely abolished androgen-mediated cell migration
same,AMPK kinase activity (phospho-ACC levels),AMPK,inhibited its kinase activity
"NC(=O)c1ncn([C@@H]2O[C@H](CO)[C@@H](O)[C@H]2O)c1N [AICAR, 5-aminoimidazole-4-carboxamide 1-b-D-ribo-furanoside]","cell migration, treatment alone","LNCaP cells; overnight 1 mM AICAR, no androgen",sufficient to increase cell migration
"C[C@@H]1C[C@@H]([C@H](O)CC2CC(=O)NC(=O)C2)C(=O)[C@@H](C)C1 [cycloheximide, Cycloheximide]",R1881-mediated increase in CaMKKβ mRNA levels,"CaMKKβ mRNA; LNCaP, 1 h 1 mg/mL cycloheximide, then 10 nM R1881 24 h",did not block
same,expression of secondary androgen target genes (ex. CXCR4),CXCR4 mRNA,inhibits the expression of secondary androgen target genes

# Source: patent publication US9999620B2, “CaMKK-β as a target for treating cancer” (Duke University, priority 2010, dated 2018)
